Data: patent publication US20080051453A1, “Sorbic acid analog co-crystals” (priority 2006, published 2008)

Assay: Pharmacokinetic parameters in male cynomolgus monkeys after nasogastric gavage (suspension) or oral (tablet) administration
Assay type: in vivo
Details: for mean AUC relative to the suspension formulation / mean Cmax relative to the suspension formulation: oral, male cynomolgus monkeys, N=4/group
Excerpt: Pharmacokinetic Parameters and Summary Statistics for Male Cynomolgus Monkeys Following Nasogastric Gavage (2% Pluronic F108 in OraPlus Suspension) or Oral (Tablet Formulations) Administration (N=4/group)

[1] = "in situ" sorbic acid cocrystal/physical blend tablet (first mention, % CV~50-60)
[2] = tablet printed again as "in situ" sorbic acid cocrystal/physical blend tablet (second mention, % CV~30-45)

mean AUC relative to the suspension formulation [1] | mean Cmax relative to the suspension formulation [1] | mean AUC relative to the suspension formulation [2] | mean Cmax relative to the suspension formulation [2] | mean AUC relative to the suspension formulation of Example 4 (cynomolgus monkey, in vivo, po) | mean Cmax relative to the suspension formulation of Example 4 (cynomolgus monkey, in vivo, po) | Compound
52-63% | 52-63% | approximately 65% | approximately 65% |  |  | N-(4-(6-(4-(trifluoromethyl)phenyl)pyrimidin-4-yloxy)benzo[d]thiazol-2-yl)acetamide sorbic acid co-crystal [Example 5]
 |  |  |  | 17-19% | 17-19% | CC(=O)Nc1nc2c(Oc3cc(-c4ccc(C(F)(F)F)cc4)ncn3)cccc2s1 [Example 4, N-(4-(6-(4-(trifluoromethyl)phenyl)pyrimidin-4-yloxy)benzo[d]thiazol-2-yl)acetamide freebase]
